Legend:
[1] = system: brain levels of cytidine and cytidine-(5')-diphosphate-choline (CDP-choline); conditions: rats, cytidine 1 g/kg ip, sacrificed after 1 hour, vs placebo
[2] = system: neuroblastoma/glioma cells (NG 108-15); assay: Formation of tritiated CDP-choline from tritiated choline in neuroblastoma/glioma cells; assay type: cell-based; conditions: NG 108-15 cells, cytidine 25 µM, 90 minutes
Description: CDP-choline is the immediate precursor for the phosphatidylcholine in membranes of neurons and other cells and its formation controls the production of phosphatidylcholine.

## Nc1ccn([C@@H]2O[C@H](CO)[C@@H](O)[C@H]2O)c(=O)n1 [cytidine]
[1]
  brain CDP-choline levels rose by: about 50%
[2]
  newly-formed CDP-choline in cells incubated with supplemental cytidine vs without cytidine: almost twice as much

— patent EP0408668B1 (MASSACHUSETTS INSTITUTE OF TECHNOLOGY, priority 1988, dated 1990)
